Assay results: US20240059671A1, “TYROSINE KINASE 2 (TYK2) DEGRADATION COMPOUNDS AND METHODS OF USE” (CULLGEN (SHANGHAI), INC., priority 2020, published 2024)
Entries after “also recorded” stand apart in the source; their conditions may differ.

Columns and labels:
Type in all cases: cell-based
[1] = biological target: T1, TYK2 (Homo sapiens, UniProt P29597); assay: TYK2 protein degradation in NOMO-1 cells by immunoblotting; set-up: endogenous in cells
Outline: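 Read-out was densitometry of chemiluminescent TYK2 immunoblot bands from RIPA lysates after SDS-PAGE. Before lysis, NOMO-1 cells cultured in RPMI 1640 plus 10% FBS were treated for 16 h at 0.1, 1, 10, 100 and 1000 nM.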

[2] = biological target: T1, TYK2; assay: TYK2 protein levels in Jurkat cells by immunoblotting; set-up: endogenous in cells; conditions: 3 or 30 nM, 16 hours
Method: (§1) Jurkat cells were treated with DMSO or a dose range of heterobifunctional compounds CPD-155, CPD-158, and CPD-164 at 3 or 30 nM concentrations for 16 hours. Cells were subsequently treated with IFNα (2000 IU) for 15 min as indicated.
(§2) Cultured cells were washed with cold PBS once and lysed in cold RIPA buffer supplemented with protease inhibitors and phosphatase inhibitors (Beyotime Biotechnology). The solutions were then incubated at 4° C. for 30 minutes with gentle agitation to fully lyse cells. Cell lysates were centrifuged at 13,000 rpm for 10 minutes at 4° C. and pellets were discarded. Total protein concentrations in the lysates were determined by BCA assays (Beyotime Biotechnology). Cell lysates were mixed with Laemmli loading buffer to 1× and heated at 99° C. for 5 min. Proteins were resolved on SDS-PAGE and visualized by chemiluminescence. Images were taken by a ChemiDoc MP Imaging system (Bio-Rad). Protein bands were quantitated using the accompanied software provided by Bio-Rad.

[3] = tested on: phosphorylation of STAT1 (Tyr701) and STAT3 (Tyr705); assay: IFNα-induced STAT1/3 phosphorylation in Jurkat cells by immunoblotting; conditions: 3 or 30 nM, 16 hours, then IFNα (2000 IU) for 15 min
Method: as §1
Rabbit anti-JAK1antibody (3344S), anti-JAK2 antibody (3230S), anti-JAK3 antibody (8827S), anti-TYK2 antibody (14193S), anti-STAT1 antibody (9167S), anti-STAT3 antibody (9139S), anti-phospho-STAT1 (Tyr701) antibody ([…]), anti-phospho-STAT3 (Tyr705) antibody (9145S), were purchased from Cell Signaling Technology; anti-β-actin antibody (ab8226) was from Abeam; HRP-conjugated anti-α-Tubulin (GNI4310-AT) antibody was purchased from GNI. Media and other cell culture reagents were purchased from Thermo Fisher.
as §2

T1 sequence (P29597 whole entry): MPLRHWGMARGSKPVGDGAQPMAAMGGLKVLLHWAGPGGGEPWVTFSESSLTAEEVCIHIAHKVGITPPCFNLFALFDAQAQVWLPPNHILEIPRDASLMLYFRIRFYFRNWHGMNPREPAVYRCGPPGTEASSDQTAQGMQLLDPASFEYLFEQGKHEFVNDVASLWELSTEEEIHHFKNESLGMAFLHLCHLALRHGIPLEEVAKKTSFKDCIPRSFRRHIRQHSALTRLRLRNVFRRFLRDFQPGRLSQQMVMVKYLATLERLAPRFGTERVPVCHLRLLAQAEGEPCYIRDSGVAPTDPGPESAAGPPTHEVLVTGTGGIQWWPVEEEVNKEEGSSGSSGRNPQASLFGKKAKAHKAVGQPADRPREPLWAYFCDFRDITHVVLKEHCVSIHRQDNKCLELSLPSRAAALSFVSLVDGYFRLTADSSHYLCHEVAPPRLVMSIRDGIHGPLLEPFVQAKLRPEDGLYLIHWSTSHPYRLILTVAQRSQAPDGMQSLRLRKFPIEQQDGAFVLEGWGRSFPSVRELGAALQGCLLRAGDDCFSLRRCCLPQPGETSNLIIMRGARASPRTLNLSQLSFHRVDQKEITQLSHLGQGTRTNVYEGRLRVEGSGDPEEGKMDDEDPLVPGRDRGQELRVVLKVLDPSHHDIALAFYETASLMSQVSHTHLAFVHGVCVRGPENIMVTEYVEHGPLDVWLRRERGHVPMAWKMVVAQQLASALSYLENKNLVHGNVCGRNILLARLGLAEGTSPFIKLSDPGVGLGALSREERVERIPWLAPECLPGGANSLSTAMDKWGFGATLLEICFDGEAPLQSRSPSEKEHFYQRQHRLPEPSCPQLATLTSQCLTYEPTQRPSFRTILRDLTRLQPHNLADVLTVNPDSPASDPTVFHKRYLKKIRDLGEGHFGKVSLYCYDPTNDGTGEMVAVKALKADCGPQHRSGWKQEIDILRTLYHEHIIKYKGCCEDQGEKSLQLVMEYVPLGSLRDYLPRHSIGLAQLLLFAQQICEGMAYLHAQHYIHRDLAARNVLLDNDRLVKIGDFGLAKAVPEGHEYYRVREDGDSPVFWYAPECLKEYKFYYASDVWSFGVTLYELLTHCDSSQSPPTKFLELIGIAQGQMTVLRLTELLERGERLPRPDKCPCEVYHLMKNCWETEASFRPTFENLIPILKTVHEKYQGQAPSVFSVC

TYK2 Degradation (NOMO-1, 10 nM) ([1]; NOMO-1 cells, 10 nM): A (A: ≥60% TYK2 degradation)
TYK2 Degradation (NOMO-1, 100 nM) ([1]; NOMO-1 cells, 100 nM): A (A: ≥60% TYK2 degradation)
TYK2 protein levels in Jurkat cells (FIG. 3) [2]: reduced levels of TYK2 proteins
Compound: CNC(=O)c1nnc(Nc2ccc(C(=O)NCCCCCNc3cccc4c3C(=O)N(C3CCC(=O)NC3=O)C4=O)cn2)cc1Nc1cccc(-c2ncn(C)n2)c1OC (centres unmarked) [CPD-155, 6-((5-((5-((2-(2,6-dioxopiperidin-3-yl)-1,3-dioxoisoindolin-4-yl)amino)pentyl)carbamoyl)pyridin-2-yl)amino)-4-((2-methoxy-3-(1-methyl-1H-1,2,4-triazol-3-yl)phenyl)amino)-N-methylpyridazine-3-carboxamide]
Reduction of TYK2 protein levels over a dose range (FIG. 2) ([1]; NOMO-1 cells, 0.1, 1, 10, 100 and 1000 nM, 16 hours): concentration-dependently reduced the TYK2 proteins levels; also recorded: highly potent in reducing TYK2 protein levels
Phosphorylation of STAT1 (Tyr701) and STAT3 (Tyr705) induced by IFNα (FIG. 3) [3]: concentration-dependently reduced phosphorylation of STAT1 (Tyr701) and STAT3 (Tyr705) induced by IFNα treatment; also recorded: significantly decreased STAT1/3 phosphorylation downstream of IFNα stimulation
